The assay relates to iPSC-derived primitive streak cells. Nature of the assay: Flow cytometry of differentiation markers after CHIR99021 treatment of primitive streak cells. Type of assay: cell-based, human. The procedure:
iPSCs seeded onto Geltrex-coated plates at a density of 100,000 cells/cm^2 were treated with mTesR media with 10 μM ROCKi for the first 24 h. On Day 0, cells were treated with base media (DMEM/F12 with GlutaMax, 1×B27) supplemented with primitive streak induction factors including 100 ng/ml Activin A and 3 μM CHIR99021. On Day 2, cells were treated with base media including 8 μM CHIR99021 to induce intermediate mesoderm until Day 5, followed by treatment with base medium containing 200 ng/ml FGF9 and 1 mg/ml Heparin (Sigma-Aldrich, St. Louis, Missouri). On Day 7, to induce the nephron progenitors, the cells were dissociated using Accutase and replated (1:4) onto laminin-511-coated plates. The podocyte phenotype was induced using base media supplemented with 100 ng/ml BMP7, 100 ng/ml Activin A, 50 ng/ml VEGF, 3 μM CHIR99021, and 0.1 μM RA and cells were assayed on Day 12. The detailed methods for deriving the podocytes was carefully described elsewhere (Bejoy J, et al. STAR protocols. 2021 2 (4): 100898).
To evaluate the expression of proteins of interest quantitatively, the cells were harvested by Accutase treatment and analyzed by flow cytometry. […] The cells were acquired with BD FACSCanto II flow cytometer (BD Biosciences, Beckton, New Jersey) and analyzed against isotype controls using FlowJo software. […]
(A flow cytometer gives signals particle by particle.)

`Cc1c[nH]c(-c2cnc(NCCNc3ccc(C#N)cn3)nc2-c2ccc(Cl)cc2Cl)n1` [CHIR99021]: the “population of MIXL1+ cells (flow cytometry)” value (8 μM CHIR99021 for 2-3 days on primitive streak cells) was 26.7%. For the same compound, the “cells expressing PAX8 (flow cytometry)” value (day 5, after 8 μM CHIR99021, intermediate mesoderm stage) is 95.9%.

These data come from patent US20240352426A1, “Accelerated Protocol for the Differentiation of Podocytes from Human Pluripotent Stem Cells” (Vanderbilt University, priority 2021, published 2024).
